Values quoted from earlier work in patent US7517693B2, “Method and apparatus for determining a molecular descriptor of absorption for a candidate compound” (North Carolina State University, priority 2002, dated 2009).

Settings: Table III calibration compounds, known literature descriptor; for logL^16 (solute gas-hexadecane partition coefficient): 25° C.

Row | Structure (SMILES) | logL^16 (solute gas-hexadecane partition coefficient) | α (effective solute H-bond acidity) | β (effective solute H-bond basicity) | π (effective solute dipolarity and polarizability)
1 | C1CCNCC1 [Piperidine] | 3.304 | 0.10 | 0.69 | 0.46
2 | COC(=O)c1ccccc1C(=O)OC [Dimethyl phthalate] | – | 0.00 | 0.88 | 1.41
3 | CCOCC [Diethylether] | – | 0.00 | 0.45 | 0.25
4 | CCC(=O)c1ccccc1 [Ethylphenylketone] | 4.971 | 0.00 | 0.51 | 0.95
5 | OC1CCCCC1 [Cyclohexanol] | – | 0.32 | 0.57 | 0.54
6 | c1ccc2c(c1)sc1ccccc12 [Dibenzothiophen] | 7.575 | 0.00 | 0.18 | 1.31
7 | CCCCCCCCCCCO [Compound 1-Undecanol, 1-Undecanol] | 6.130 | 0.37 | 0.48 | 0.42
8 | c1ccccc1 [Benzene] | – | – | – | 0.52
9 | CCF [Fluoroethane] | 0.559 | 0.00 | 0.10 | 0.35
10 | Oc1ccc(Cl)cc1 [4-Chlorophenol] | 4.775 | 0.67 | 0.20 | 1.08
11 | Sc1ccccc1 [Thiophenol] | – | 0.09 | 0.16 | 0.80
12 | Cc1ccccc1O [o-Cresol] | 4.218 | 0.52 | 0.30 | 0.86
13 | COc1ccccc1O [2-Methoxyphenol] | 4.449 | 0.22 | 0.52 | 0.91
14 | N#Cc1cccc(O)c1 [3-Cyanophenol] | 5.181 | 0.77 | 0.28 | 1.55
15 | CO [Methanol] | 0.970 | 0.43 | 0.47 | 0.44
16 | Oc1ccccc1F [2-Fluorophenol] | 3.453 | 0.61 | 0.26 | 0.69
17 | N#Cc1ccc(O)cc1 [4-Cyanophenol] | – | 0.79 | 0.29 | 1.63
18 | C1CCCCCCC1 [Cyclooctane] | 4.329 | 0.00 | 0.00 | 0.10
19 | Oc1ccc(I)cc1 [Compound 4-Iodophenol, 4-Iodophenol] | 5.492 | 0.68 | 0.20 | 1.22
20 | CCCCCCCCCl [1-Chlorooctane] | 4.772 | 0.00 | 0.10 | 0.40
